The experiment concerns C. tyrobutyricum. In words: Batch fermentation in stirred-tank bioreactor on glucose and xylose with acetate and benzyl viologen added. The format is cell-based, Clostridium tyrobutyricum. To be noted: in the presence of 3.75 μM BV (0.30 g/g before BV addition); pH 6.0, ~18 g/L acetate added at ~48 h. The protocol:
Batch fermentation in a stirred-tank bioreactor with C. tyrobutyricum grown on glucose and xylose at pH 6.0 was studied with the addition of ˜18 g/L acetate and 3.75 μM benzyl viologen (BV) at ˜48 h. With BV and acetate addition, C. tyrobutyricum converted glucose, xylose, and acetate simultaneously to butyrate as the sole fermentation product with close to 100% purity at an overall yield of ˜0.48 g/g substrate. Almost all glucose and acetate (both produced before BV addition and externally added) were consumed to produce butyrate, reaching a high concentration of ˜46 g/L. Butyric acid yield from sugars increased from 0.30 g/g before BV addition to 0.52 g/g from both sugars and acetate consumed in the presence of 3.75 μM BV. The theoretical yield of butyric acid from glucose in the fermentation is 0.8 mol/mol (0.39 g/g) when acetate (0.4 mol/mol) and carbon dioxide (2 mol/mol) are also produced as co-products. In contrast, butyrate formation from acetate has a theoretical yield of 0.73 g/g (0.5 mol/mol), which is 87.2% higher than that from glucose, because no substrate carbon is lost in carbon dioxide. In addition to the higher butyrate yield, butyrate was produced as the only main product in the fermentation with a high acid purity of 98.3%, which was much higher than ˜80% in typical butyric acid fermentation. […]

As for `c1ccc(C[n+]2ccc(-c3cc[n+](Cc4ccccc4)cc3)cc2)cc1` [BV, benzyl viologen], the “Butyric acid yield from both sugars and acetate consumed” value came to 0.52 g/g.

Source of the values: US20250215460A1, “MICROBIAL […] THE CONVERSION OF CARBOHYDRATES” (Ohio State Innovation Foundation, priority 2022, published 2025).
